Experimental data as given in patent US20250129430A1, “HIGH ATP-AFFINITY PROTEIN AS THERAPEUTIC TARGET FOR INTRACTABLE CANCER MOLECULAR SUBTYPES AND INHIBITOR THEREOF” (VeraVerse Co., Ltd., priority 2021, published 2025).

Assays:
Test in all cases: Cell viability drug screen, 12-point dose-response AUC
Type in all cases: cell-based, human
[1] = test system: YCC2; conditions: YCC2 cells, 72 hours
Method: (§1) An FDA-approved small-molecule pharmacological compound (#L1300) and an anticancer compound for research (#L2000) were purchased from Selecckchem and a 10 mM solution was prepared in DMSO. A total of 1,345 compounds were tested the cell viability of the seven EMT gastric cancer cell lines.
(§2) Cells cultured for cell-based drug assay were inoculated into a 96-well white optical plate (Corning) at 5×10^3 cells per well. After 24 hours after inoculation, a 2.5 MJT (primary screen) or a half-log 12-serial diluent (secondary screen) of the pharmacological compound contained in DMSO is added to the cells with a robot using a BioMek FXp liquid processor (Beckman) to add to the cells at 50 mM. The final drug concentration in the 5 ns range and the DMSO specification control (0.5%) were calculated. The cells were then further incubated at 37° C. in a 5% CO2 incubator for 72 hours prior to measuring cell viability using the extra-GLO assay kit (Promega). The luminescent properties were measured after 15 min incubation at room temperature using a plate stacker equipped with a plate stacker. The normalized viability for the DMSO-based control was measured to generate a cell line-specific 12-point dose-response curve for each pharmacological compound, and then the area under the curve (AUC) was calculated using a trapezoidal method. […] The results of the repeated experiments were averaged to generate AUC values for each cell line for each compound.

[2] = test system: SNU719; conditions: SNU719 cells, 72 hours
Method: as §1, §2

[3] = test system: NCC24; conditions: NCC24 cells, 72 hours
Method: as §1, §2

[4] = test system: SNU1967; conditions: SNU1967 cells, 72 hours
Method: as §1, §2

[5] = test system: YCC3; conditions: YCC3 cells, 72 hours
Method: as §1, §2

[6] = test system: NCC59; conditions: NCC59 cells, 72 hours
Method: as §1, §2

[7] = test system: MKN28; conditions: MKN28 cells, 72 hours
Method: as §1, §2

[8] = test system: NCI_N87; conditions: NCI_N87 cells, 72 hours
Method: as §1, §2

[9] = test system: SNU638; conditions: SNU638 cells, 72 hours
Method: as §1, §2

[10] = test system: AGS; conditions: 72 hours
Method: as §1, §2

[11] = test system: SNU601; conditions: SNU601 cells, 72 hours
Method: as §1, §2

[12] = test system: NCC19; conditions: NCC19 cells, 72 hours
Method: as §1, §2

[13] = test system: SNU484; conditions: 72 hours
Method: as §1, §2

[14] = test system: MKN45; conditions: 72 hours
Method: as §1, §2

[15] = test system: YCC11; conditions: 72 hours
Method: as §1, §2

[16] = test system: MKN74; conditions: MKN74 cells, 72 hours
Method: as §1, §2

[17] = test system: SK4; conditions: 72 hours
Method: as §1, §2

[18] = test system: SNU1; conditions: SNU1 cells, 72 hours
Method: as §1, §2

[19] = test system: Hs746T; conditions: 72 hours
Method: as §1, §2

[20] = test system: NCC20; conditions: NCC20 cells, 72 hours
Method: as §1, §2

[21] = test system: SNU1750; conditions: 72 hours
Method: as §1, §2

[22] = test system: SNU216; conditions: 72 hours
Method: as §1, §2

[23] = test system: KATO3; conditions: KATO3 cells, 72 hours
Method: as §1, §2

[24] = test system: OCUM1; conditions: OCUM1 cells, 72 hours
Method: as §1, §2

[25] = test system: SNU620; conditions: SNU620 cells, 72 hours
Method: as §1, §2

[26] = test system: SNU668; conditions: 72 hours
Method: as §1, §2

[27] = test system: MKN1; conditions: MKN1 cells, 72 hours
Method: as §1, §2

[28] = test system: SNU16; conditions: SNU16 cells, 72 hours
Method: as §1, §2

[29] = test system: FU97; design: Average Area Under the Viability Curve (AUC), AUC norm value: scale not given here; conditions: FU97 cells, 72 hours
Method: Cells cultured for cell-based drug assay were inoculated into a 96-well white optical plate (Corning) at 5×10^3 cells per well. After 24 hours after inoculation, a 2.5 MJT (primary screen) or a half-log 12-serial diluent (secondary screen) of the pharmacological compound contained in DMSO is added to the cells with a robot using a BioMek FXp liquid processor (Beckman) to add to the cells at 50 mM. The final drug concentration in the 5 ns range and the DMSO specification control (0.5%) were calculated. The cells were then further incubated at 37° C. in a 5% CO2 incubator for 72 hours prior to measuring cell viability using the extra-GLO assay kit (Promega). The luminescent properties were measured after 15 min incubation at room temperature using a plate stacker equipped with a plate stacker. The normalized viability for the DMSO-based control was measured to generate a cell line-specific 12-point dose-response curve for each pharmacological compound, and then the area under the curve (AUC) was calculated using a trapezoidal method.

SMILES: O=C(CCCCCCC(=O)Nc1ccccc1)NO [Vorinostat (SAHA), Vorinostat]
- Average Area Under the Viability Curve (AUC), AUC norm value [1]: 0.09328
- Average Area Under the Viability Curve (AUC), AUC norm value [2]: 1.843
- Average Area Under the Viability Curve (AUC), AUC norm value [3]: −0.3421
- Average Area Under the Viability Curve (AUC), AUC norm value [4]: −0.2574
- Average Area Under the Viability Curve (AUC), AUC norm value [5]: 1.034
- Average Area Under the Viability Curve (AUC), AUC norm value [6]: 1.01
- Average Area Under the Viability Curve (AUC), AUC norm value [7]: −0.08142
- Average Area Under the Viability Curve (AUC), AUC norm value [8]: 0.8986
- Average Area Under the Viability Curve (AUC), AUC norm value [9]: −0.4313
- Average Area Under the Viability Curve (AUC), AUC norm value ([10]; AGS cells (non-SEM subtype)): −0.5947
- Average Area Under the Viability Curve (AUC), AUC norm value [11]: 2.84
- Average Area Under the Viability Curve (AUC), AUC norm value [12]: 0.2993
- Average Area Under the Viability Curve (AUC), AUC norm value ([13]; SNU484 cells (SEM subtype)): 1.041
- Average Area Under the Viability Curve (AUC), AUC norm value ([14]; MKN45 cells (non-SEM subtype)): 2.416
- Average Area Under the Viability Curve (AUC), AUC norm value ([15]; YCC11 cells (SEM subtype)): −0.2285
- Average Area Under the Viability Curve (AUC), AUC norm value [16]: −0.07666
- Average Area Under the Viability Curve (AUC), AUC norm value ([17]; SK4 cells (SEM subtype)): 0.6434
- Average Area Under the Viability Curve (AUC), AUC norm value [18]: −0.2152
- Average Area Under the Viability Curve (AUC), AUC norm value ([19]; Hs746T cells (SEM subtype)): −0.04774
- Average Area Under the Viability Curve (AUC), AUC norm value [20]: −0.9328
- Average Area Under the Viability Curve (AUC), AUC norm value ([21]; SNU1750 cells (SEM subtype)): −0.5737
- Average Area Under the Viability Curve (AUC), AUC norm value ([22]; SNU216 cells (non-SEM subtype)): −0.04999
- Average Area Under the Viability Curve (AUC), AUC norm value [23]: 0
- Average Area Under the Viability Curve (AUC), AUC norm value [24]: −0.5166
- Average Area Under the Viability Curve (AUC), AUC norm value [25]: 0.08594
- Average Area Under the Viability Curve (AUC), AUC norm value ([26]; SNU668 cells (SEM subtype)): 0.4303
- Average Area Under the Viability Curve (AUC), AUC norm value [27]: 0.4282
- Average Area Under the Viability Curve (AUC), AUC norm value [28]: −0.7875
- Average Area Under the Viability Curve (AUC), AUC norm value [29]: 0.2975

SMILES: Cc1ccc(C(=O)N(CCCN)[C@@H](c2oc3cc(Cl)ccc3c(=O)c2Cc2ccccc2)C(C)C)cc1 [SB 743921]
- area under the viability curve (AUC), normalized ([1]; 12-point dose-response): 0.2048
- area under the viability curve (AUC), normalized ([2]; 12-point dose-response): 2.115
- area under the viability curve (AUC), normalized ([3]; 12-point dose-response): −2.238
- area under the viability curve (AUC), normalized ([4]; 12-point dose-response): 0.8572
- area under the viability curve (AUC), normalized ([5]; 12-point dose-response): 2.421
- area under the viability curve (AUC), normalized ([6]; 12-point dose-response): 2.285
- area under the viability curve (AUC), normalized ([7]; 12-point dose-response): −1.699
- area under the viability curve (AUC), normalized ([8]; 12-point dose-response): −1.205
- area under the viability curve (AUC), normalized ([9]; 12-point dose-response): −0.2572
- area under the viability curve (AUC), normalized ([10]; AGS cells, 12-point dose-response): −2.366
- area under the viability curve (AUC), normalized ([11]; 12-point dose-response): −1.703
- area under the viability curve (AUC), normalized ([12]; 12-point dose-response): 1.296
- area under the viability curve (AUC), normalized ([13]; SNU484 cells, 12-point dose-response): −1.3076
- area under the viability curve (AUC), normalized ([14]; MKN45 cells, 12-point dose-response): 2.818
- area under the viability curve (AUC), normalized ([15]; YCC11 cells, 12-point dose-response): −1.353
- area under the viability curve (AUC), normalized ([16]; 12-point dose-response): 0.00599
- area under the viability curve (AUC), normalized ([17]; SK4 cells, 12-point dose-response): −0.9769
- area under the viability curve (AUC), normalized ([18]; 12-point dose-response): −0.9587
- area under the viability curve (AUC), normalized ([19]; Hs746T cells, 12-point dose-response): 1.359
- area under the viability curve (AUC), normalized ([20]; 12-point dose-response): −1.288
- area under the viability curve (AUC), normalized ([21]; SNU1750 cells, 12-point dose-response): 0.00014
- area under the viability curve (AUC), normalized ([22]; SNU216 cells, 12-point dose-response): 2.438
- area under the viability curve (AUC), normalized ([23]; 12-point dose-response): 3.189
- area under the viability curve (AUC), normalized ([24]; 12-point dose-response): 1.653
- area under the viability curve (AUC), normalized ([25]; 12-point dose-response): −2.366
- area under the viability curve (AUC), normalized ([26]; SNU668 cells, 12-point dose-response): 0
- area under the viability curve (AUC), normalized ([27]; 12-point dose-response): −1.406
- area under the viability curve (AUC), normalized ([28]; 12-point dose-response): −1.454
- area under the viability curve (AUC), normalized ([29]; 12-point dose-response): 0.8407
